Results published in patent US20250367209A1 (SOUTHERN RESEARCH INSTITUTE, priority 2022, published 2025).

Target: Tau-FynSH3 interaction (Homo sapiens (Human), UniProt P10636)
Experiment: Tau-Flag PLA, Tau-FynSH3
Format: cell-based
Description: Tau-Flag PLA for Tau-SH3 interactions: To clone the SH3 constructs, a C-terminal Flag tag was added to the Tau construct using PCR, then the Tau sequence was replaced with the desired SH3 domain using In-Fusion HD cloning kit (Takara Bio). Next, an N-terminal GST tag was added to help expression using In-Fusion, resulting in GST-SH3-Flag plasmids. As a negative control, restriction enzymes were used to remove the FynSH3 from the FynSH3 construct, resulting in GST-Flag. All sequences were confirmed with Sanger sequencing, and expression in HEK-293 cells was verified by western blot and immunocytochemistry. Plating and experimental timeline was the same as above. Cells were transfected with 125 ng of Tau-mKate2 and 500 ng SH3 plasmid with 1.5 μL Fugene. compound no. 69 was applied to final concentration 15 μM. For Tau-SH3 PLA, we used Dako Tau (1:1000) and Flag (1:1000) primary antibodies.

Sequence of Tau-FynSH3 interaction (P10636 other isoform, or with tags, fused parts or gaps): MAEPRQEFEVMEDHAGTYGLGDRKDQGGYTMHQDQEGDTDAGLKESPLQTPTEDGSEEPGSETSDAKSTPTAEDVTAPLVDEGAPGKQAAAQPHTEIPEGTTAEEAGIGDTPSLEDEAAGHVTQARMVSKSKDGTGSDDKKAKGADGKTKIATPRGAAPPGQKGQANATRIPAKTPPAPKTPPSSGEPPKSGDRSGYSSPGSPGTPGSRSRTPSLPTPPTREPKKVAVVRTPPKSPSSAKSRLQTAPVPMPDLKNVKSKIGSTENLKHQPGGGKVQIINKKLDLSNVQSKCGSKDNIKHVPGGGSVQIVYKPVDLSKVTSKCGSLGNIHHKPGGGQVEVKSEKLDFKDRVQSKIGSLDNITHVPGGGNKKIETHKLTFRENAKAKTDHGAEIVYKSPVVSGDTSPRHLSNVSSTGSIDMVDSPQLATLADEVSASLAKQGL

In the case of `O=C(CN1CCOc2ccccc21)Nc1nnc(-c2ccccn2)[nH]1` [compound no. 69], the “Tau-FynSH3 interaction, Tau-Flag PLA (in words)” value (15 μM, HEK-293 cells) is reported as “inhibited” and the inhibition at 15 µM (HEK293, HEK-293 cells) is reported as 37%.
